Holding throughout (type): in vivo, rat
Data set [1] relates to Male Fisher 344 rats. The experiment in a line: Plasma protein-bound 3-nitrotyrosine (HPLC-EC). How it is done: (§1) Animals and treatment protocol: Male Fisher 344 rats (260-280 g) obtained from Charles River Laboratories (Raleigh, N.C.) were used in all experiments. The animals were housed three to a cage. Autoclaved hardwood bedding was used in solid-bottom polycarbonate cages with filter tops. Animal rooms were maintained at 20-25° C. with 35-70% relative humidity with alternating 12-hour light and dark cycles. The rats had free access to deionized, reverse-osmosis-treated water and received autoclaved NIH 31 rodent chow (Zeigler Bros., Gardners, Pa.) ad libitum. For all experiments, rats were fasted overnight and then administered intraperitoneal injections of carbon tetrachloride in canola oil. Control rats received an equal volume of canola oil. Fasting continued throughout the experiment. Rats were anesthetized with Nembutal (0.1 ml/100 g body weight) and 5 ml blood was removed from the dorsal aorta proximal to its bifurcation into the common iliac arteries.
(§2) Carbon tetrachloride (CCL4) treatment: Animals from each of the three dose groups (Control-canola oil, 120 mg/kg CCl4 i.p. and 1200 mg/kg CCl4 i.p.) were investigated at three time points (2, 7, and 16 hours after CCl4 injection). Indomethacin-pretreated rats were also investigated at the same three time points, and the meclofenamic acid-pretreated rats were investigated at one time point (7 hours). Each group consisted of five rats for each analysis, except the meclofenamic acid pretreatment group which consisted of six rats. Animal treatment, sample preparation, assessment of liver histology and serum enzyme activities are described elsewhere (Kadiiska et al., 2000, Free Radic. Biol. Med. 28: 838-845; Jackson, 1989, J. Pharmacol. Exp. Ther. 250: 9-21) and were carried out at NIEHS, Research Triangle Park, N.C.
(§3) Plasma sample preparation: Blood (5 ml) was drawn through single draw Vacutainer® needles (21 Gauge) into open Vacutainer® blood collection tubes containing heparin. The tubes were gently inverted 2-3 times for mixing and immediately placed on ice. Blood was centrifuged (2,000 rpm for 10 minutes at 4° C.) no more than 30 minutes after collection, and the plasma was collected, frozen on dry ice and stored at −70° C.
Determination of tyrosine products employed a method of sample preparation wherein tyrosine analogs were enzymatically hydrolyzed from protein without the need for sample extraction, concentration or derivatization (Henley et al., 1997, Analytical Biochem. 251: 187-195). High performance liquid chromatography was applied in conjunction with coulometric electrochemical array (HPLC-EC) detection to allow ultrasensitive determination of protein-bound 3-nitrotyrosine and 3,4-dihydroxyphenylalanine (3-hydroxytyrosine) as specific in situ biomarkers of protein exposure to reactive nitrating or oxidizing species (Henley et al., 1997, Analytical Biochem. 251: 187-195). Tyrosine and derivatives were analyzed simultaneously, with practical detection limits for tyrosine, 3-nitrotyrosine, and 3,4-Dopa being 10, 50 and 2 pmol respectively, in as little as 20 μL of sample. The measurements were conducted at the Oklahoma Medical Research Foundation (OMRF), Oklahoma City, Okla.

Data set [2] concerns Male Fisher 344 rats. The experiment in a line: Plasma lipid hydroperoxides (LPO assay kit) after CCl4. Conditions: for LOOH (by LPO assay kit): plasma. As to the method: as §1, §2, §3
Two assays were used to measure the effect of CCl4 on lipid hydroperoxides. A lipid hydroperoxide assay kit (Catalog No. 705002) from Cayman Chemical Company (Ann Arbor, Mich.) was used to measure hydroperoxides directly, utilizing the redox reaction with ferrous ion. Hydroperoxides were extracted into chloroform and reacted with ferrous ions to produce ferric ions. The resulting ferric ions were detected using thiocyanate ion as the chromogen. The hydroperoxide concentration was determined based on the absorption at 504 nm using a Beckman DU-7 spectrophotometer at room temperature. The experiments were performed at National Institute of Environmental Health Sciences (NIEHS), Research Triangle Park, N.C.

Data set [3] concerns Male Fisher 344 rats. The experiment in a line: Plasma free 8-iso-PGF2α by GC/NICI-MS. The settings on record: for Free 8-iso-PGF2a (by GC-MS): plasma. As to the method:
as §1
Indomethacin pretreatment: The indomethacin regimen used has been previously shown to inhibit COX activity in rats by 90% (dose of 5 mg/kg s.c. 24 hours, 12 hours, and 2 hours prior to the injection of CCl4) (Jackson, 1989, J. Pharmacol. Exp. Ther. 250: 9-21). An additional booster dose was injected 8 hours after the last injection of CCl4 for the measurements performed 16 hours after treatment with CCl4.
Meclofenamic acid pretreatment: Meclofenamic acid was injected at a dose of 5 mg/kg i.p. 12 h and 2 h prior to the injection of CCl4.
as §2, §3
Two slightly different methods developed in two different laboratories were used to measure the effect of CCl4 on the plasma levels of free 8-iso-PGF2α, and the sum of free plus esterified 8-iso-PGF2α (also known as 8-epi-PGF2α and iPF2α-III and 15-F2t-IsoP). Free 8-iso-PGF2α concentrations in plasma were determined by gas chromatography/negative ion chemical ionization mass spectrometry (GC/NICI-MS) by the method of Morrow et al. (1999, Methods Enzymol. 300: 3-12). Briefly, [2H4] 8-iso-PGF2α internal standard was added to plasma and F2-isoprostanes were extracted with a C18 Sep-Pak® Cartridge (Waters Associates, Milford, Mass.). The extracted F2-isoprostanes were converted to pentafluorobenzyl ester and purified by TLC after which they were converted to a trimethylsilyl ether derivative and subsequently analyzed by GC-MS. The assay was developed and performed at Vanderbilt University, Nashville, Tenn.

As for `ClC(Cl)(Cl)Cl` [CCl4, Carbon tetrachloride], the “3-Nitrotyrosine, bound” value with Male Fisher 344 rats [1] (CCl4 120 mg/kg i.p., 2 h) was found to be 0.24 µM; in the data set on Male Fisher 344 rats [1] (CCl4 120 mg/kg i.p., 7 h), 0.39 µM; in the data set on Male Fisher 344 rats [1] (CCl4 120 mg/kg i.p., 16 h), 0.43 µM; with Male Fisher 344 rats [1] (CCl4 1200 mg/kg i.p., 2 h) it was 0.26 µM; in the data set on Male Fisher 344 rats [1] (CCl4 1200 mg/kg i.p., 7 h) it was 0.42 µM; with Male Fisher 344 rats [1] (CCl4 1200 mg/kg i.p., 16 h) it was 0.38 µM. Further, the “LOOH (by LPO assay kit)” value in the data set with Male Fisher 344 rats [2] (CCl4 120 mg/kg i.p., 2 h) came out at 0.96 µM; in the data set with Male Fisher 344 rats [2] (CCl4 120 mg/kg i.p., 7 h), 1.20 µM; in the data set with Male Fisher 344 rats [2] (CCl4 120 mg/kg i.p., 16 h), 1.60 µM; in the data set on Male Fisher 344 rats [2] (CCl4 1200 mg/kg i.p., 2 h), 1.42 µM; in the data set with Male Fisher 344 rats [2] (CCl4 1200 mg/kg i.p., 7 h), 1.35 µM; in the data set on Male Fisher 344 rats [2] (CCl4 1200 mg/kg i.p., 16 h) it was 1.64 µM. Moreover, in the data set on Male Fisher 344 rats [2] (high dose CCl4, 2 hour), the “increase of lipid hydroperoxides compared to controls (kit)” value is reported as 3 fold. Further, the “Free 8-iso-PGF2a (by GC-MS)” value with Male Fisher 344 rats [3] (CCl4 120 mg/kg i.p., 2 h) was 0.48 ng/mL; in the data set on Male Fisher 344 rats [3] (CCl4 120 mg/kg i.p., 7 h), 0.34 ng/mL; in the data set on Male Fisher 344 rats [3] (CCl4 120 mg/kg i.p., 16 h) it was 0.27 ng/mL; in the data set on Male Fisher 344 rats [3] (CCl4 1200 mg/kg i.p., 2 h), 1.80 ng/mL; with Male Fisher 344 rats [3] (CCl4 1200 mg/kg i.p., 7 h), 1.27 ng/mL; in the data set on Male Fisher 344 rats [3] (CCl4 1200 mg/kg i.p., 16 h) it was 0.74 ng/mL. Further, the “increase of free plasma 8-iso-PGF2α” value with Male Fisher 344 rats [3] (high dose CCl4, 2 hours) is given as 18 fold; in the data set with Male Fisher 344 rats [3] (high dose CCl4, 7 hours), 10 fold; in the data set on Male Fisher 344 rats [3] (high dose CCl4, 16 hours) it was 7 fold.

For the origin of these results see US7833795B2, “Assessment of cardiovascular risk using isoprostane biomarkers and COX-2 selective inhibitors” (The Trustees of the University of Pennsylvania, priority 2004, dated 2010).
